Data reported in US20190070170A1, “METHOD OF S[…]-1” (Macau University of Science and Technology, priority 2017, published 2019).

Columns and labels:
p-cPLA2 [1] = assay: p-cPLA2 protein expression in LPS-activated rat peritoneal macrophages (western blotting); type: cell-based; conditions: SIN or DEX 1 h, LPS 24 h
Procedure: (§1) Sprague-Dawley (SD) rats from the University of Hong Kong were housed in cages with free access to food and water. Peritoneal macrophages of SD rats were isolated as described in Liu J. et al., Pharmacological research 2016, 111:303-315. Briefly, untreated rats were sacrificed and after laparotomy, about 50 ml cold sterile Hank's balanced salt solution (HBSS) was used to lavage the peritoneal cavity at twice, and then the peritoneal lavage fluid was collected and centrifuged at 1500 rpm for 10 min. The cell pellets was suspended at a density 1.5×10^6 cells/ml in pre-hearted DMEM medium with 10% heat-inactivated FBS, penicillin G (100 units/ml), streptomycin ([…]), and L-glutamine (2 mM), followed by seeding in 6-well plates at a density of 4.5×10^6 cells and incubation for 2 h. Then the medium were discarded to remove the non-adherent cells. The adherent cells were further washed for two times with pre-heated DMEM medium to remove floating cells. Next, cells were pre-treated with various concentration of SIN for 1 h, followed by stimulation with LPS (1 μg/ml).
(§2) Whole-cell and nuclear proteins were obtained using RIPA lysis buffer (CST, Boston, Mass., USA) and Nuclear and Cytoplasmic Extraction Reagents kit from Thermo Scientific (Asheville, N.C., USA), respectively. […] The levels of protein expression were measured using Odyssey v3.0 software from Li-COR (Lincoln, Nebr., USA).

p-cPLA2 [2] = assay: p-cPLA2 protein expression in IL-1β-stimulated A549 cells (western blotting); type: cell-based; conditions: IL-1β with SIN or DEX for 48 h
Procedure: (§3) RAW264.7 and A549 cell lines were obtained from American Type Culture Collection (ATCC, Manassas, Va., USA) and maintained in DMEM (RAW264.7) or 1640 (A549) medium containing 10% FBS (Gibco-BRL, Grand Island, N.Y., USA) and antibiotics at 37° C. in a humidified atmosphere containing 5% CO2. RAW264.7 cells were plated in 6-well plates at a density of 4×10^5 cells and incubated for 24 h, then the cells were pretreated with different concentrations of SIN for 1 h before stimulating with LPS (100 ng/ml). A549 cells were seeded in 6-well plates at a density of 1×10^5 cells and incubated for 24 h, followed by pretreatment with SIN. A549 cells were then stimulated by IL-1β (1 ng/ml).
(§4) Whole-cell and nuclear proteins were obtained using RIPA lysis buffer (CST, Boston, Mass., USA) and Nuclear and Cytoplasmic Extraction Reagents kit from Thermo Scientific (Asheville, N.C., USA), respectively. For immunoblotting, proteins from whole-cell, cytoplasm, nuclear, and microsomal fractions were separated on SDS-PAGE, then transferred onto a nitrocellulose membrane from GE Healthcare Life Sciences (Buckinghamshire, UK), and incubated with 5% skimmed milk at room temperature for 1 h. […] The levels of protein expression were measured using Odyssey v3.0 software from Li-COR (Lincoln, Nebr., USA).

iNOS = iNOS protein level in LPS-stimulated RAW264.7 cells (immunoblotting); type: cell-based, mouse; conditions: pretreatment 1 h, LPS 100 ng/ml 18 h
Procedure: as §3, §4

COX-1 = COX-1 protein expression in LPS-activated rat peritoneal macrophages (western blotting); type: cell-based; conditions: SIN or DEX 1 h, LPS 24 h
Procedure: as §1, §2

CEBPβ (COX-2 promoter) = assay: ChIP assay: CEBPβ DNA binding to COX-2 promoter in LPS-stimulated rat peritoneal macrophages; type: cell-based; conditions: 640 μM SIN 1 h, 1 μg/ml LPS 30 min
Procedure: Rat peritoneal macrophages were pretreated with 640 μM SIN (1 h) and stimulated with 1 μg/ml LPS (30 min) before fixation at room temperature for 10 min with 1% formaldehyde. Fixation was terminated by adding glycine (to 0.125 M) with an additional incubation of 5 min, then the cells were washed twice with ice-cold PBS and harvested by scraping and centrifugation (1500 rpm for 10 min at 4° C.). Cell lysis was performed using ChIP kit from abcam (Cambridge, UK) according to the manufacturer's instructions. Briefly, cell pellets were resuspended in 1 ml Buffer B by pipetting up and down several times in a microcentrifuge tube and incubated at room temperature for 10 min. After centrifugation at 5000 rpm, the pellet was collected and resuspended in ice cold Buffer C and incubated on ice for 10 min, followed by centrifugation (5,000 rpm for 10 min at 4° C.). The pellet was mixed with 100 μl Buffer D containing protease inhibitors, incubated on ice for 10 min and sonicated for 30 cycles in a Bioruptor UCD-300 sonicator (power on high, 30 s on, 30 s off per cycle), yielding DNA fragments of 150-200 bps (the size of sonicated chromatin was checked through running 2% agarose gel). Beads were blocked overnight in PBS with 0.5% BSA and then added to the samples. […]

Q: How did the p-cPLA2 protein expression (p-cPLA2 [1]) turn out when `COC1=C[C@@H]2[C@@H]3Cc4ccc(OC)c(O)c4[C@]2(CCN3C)CC1=O` [SIN, sinomenine] was run?
A: The p-cPLA2 protein expression was “did not suppress”.

Q: And the p-cPLA2 protein expression (p-cPLA2 [2])?
A: Its p-cPLA2 protein expression is “did not suppress”.

Q: What about the iNOS expression (iNOS) of the same molecule?
A: The iNOS expression was “significantly inhibited”.

Q: What about the COX-1 protein expression (COX-1) of the same molecule?
A: The COX-1 protein expression was “did not suppress”.

Q: And the “DNA binding of CEBPβ to the COX-2 promoter” value (CEBPβ (COX-2 promoter))?
A: The value was “inhibited”.
